Consider two compounds from patent US20230366887A1, “METHODS OF DETECTING AND USING BIOMARKERS FOR GLYCOGEN STORAGE DISEASES” (Duke University, priority 2020, published 2023).

Where “and” joins values, the source holds several entries; their conditions need not be identical. Identical values can stand only once.

In data set [1] the test system is 1,5-AG. Kind of data set: Level of 1,5-AG in subjects having GSD Ib after Jardiance treatment. It is filed as in vivo, human. To be noted: reference range in normal adults 10.7-32.0, in µg/mL (unit assumed). The method, then:
The level of 1,5-AG was determined in 6 subjects having GSD Ib. Here, the reference range of 1,5-AG in normal, non-GSD Ib adults is 10.7-32.0.

The conditions of data set [2]: cited from earlier work.

As for `OC[C@H]1O[C@@H](c2ccc(Cl)c(Cc3ccc(O[C@H]4CCOC4)cc3)c2)[C@H](O)[C@@H](O)[C@@H]1O` [Jardiance], the “Level of 1,5-AG After Jardiance Treatment” value in data set [1] (first value after treatment) was 20.7 and 33.1; in data set [1] (later value ('then')), 7.8.

On to `OC[C@H]1OC[C@H](O)[C@@H](O)[C@@H]1O` [1,5-AG, 1,5-anhydroglucitol], for which the half-life in blood in data set [2] (blood) was 1-2 weeks. For the same compound, in data set [2] (reabsorption at sodium glucose active cotransporter (SGLT4)), the “excreted amount in urine reabsorbed by the kidneys” value is recorded as “About 99.9%”.
